Experimental data published in patent US6506780B2, “Benzophenones and sulfones as inhibitors of glycine uptake” (Pfizer Inc., priority 2000, dated 2003).
Counter-ions that a name gives are not always drawn.

Legend:
[1] = tested on: NMDA receptor; settings: effect blocked by a specific NMDA-site antagonist and a glycine-site antagonist; cited from earlier work

| melting point | Compound | post synaptic current driven by the NMDA receptor [1] |
| --- | --- | --- |
| 55 to 65 °C | Cc1ccc(C(=O)c2ccc(OC(CCN(C)CC(=O)O)c3ccc(F)cc3)cc2)nc1 (stereo not shown) | – |
| 60 to 75 °C | CN(CCC(Oc1ccc(C(=O)c2cc(C(F)(F)F)cc(C(F)(F)F)c2)cc1)c1ccc(F)cc1)CC(=O)O (stereo not shown) | – |
| 80 to 100 °C | CN(CCC(Oc1ccc(C(=O)c2nccs2)cc1)c1ccc(Cl)cc1)CC(=O)O (stereo not shown) | – |
| 72 to 82 °C | CN(CCC(Oc1ccc(C(=O)c2ccncc2)cc1)c1ccc(Cl)cc1)CC(=O)O (stereo not shown) | – |
| 60 to 70 °C | CN(CCC(Oc1cccc(C(=O)c2ccncc2)c1)c1ccc(F)cc1)CC(=O)O (stereo not shown) | – |
| 68 to 78 °C | CN(CCC(Oc1cccc(C(=O)c2ccncc2)c1)c1ccc(Cl)cc1)CC(=O)O (stereo not shown) | – |
| 77 to 89 °C | CN(CCC(Oc1ccc(C(=O)c2ccc3ccccc3c2)cc1)c1ccccc1)CC(=O)O (stereo not shown) (as salt: salt) | – |
| 65 to 83 °C | CN(CCC(Oc1ccc(C(=O)c2ccc(C(F)(F)F)cc2)cc1)c1ccccc1)CC(=O)O (stereo not shown) (as salt: salt) | – |
| 85 to 95 °C | Cc1ccc(C(=O)c2ccc(OC(CCN(C)CC(=O)O)c3ccccc3)cc2)cc1 (stereo not shown) (as salt: salt) | – |
| 65 to 83 °C | CN(CCC(Oc1ccc(C(=O)c2ccc(F)cc2)cc1)c1ccccc1)CC(=O)O (stereo not shown) (as salt: salt) | – |
| 60 to 70 °C | Cc1ccc(C(=O)c2ccc(OC(CCN(C)CC(=O)O)c3ccc(F)cc3)cc2)cc1 (stereo not shown) (as salt: salt) | – |
| 71 to 85 °C | CN(CCC(Oc1ccc(C(=O)c2ccc(Cl)cc2)cc1)c1ccc(F)cc1)CC(=O)O (stereo not shown) (as salt: salt) | – |
| 58 to 72 °C | CN(CCC(Oc1ccc(C(=O)c2ccc(C(F)(F)F)cc2)cc1)c1ccc(F)cc1)CC(=O)O (stereo not shown) (as salt: salt) | – |
| 75 to 85 °C | COc1ccc(C(=O)c2ccc(OC(CCN(C)CC(=O)O)c3ccc(F)cc3)cc2)cc1 (stereo not shown) (as salt: salt) | – |
| 87 to 97 °C | CN(CCC(Oc1ccc(C(=O)c2ccc3ccccc3c2)cc1)c1ccc(F)cc1)CC(=O)O (stereo not shown) (as salt: salt) | – |
| 91 to 100 °C | CN(CCC(Oc1ccc(C(=O)c2cccc3ccccc23)cc1)c1ccc(F)cc1)CC(=O)O (stereo not shown) (as salt: salt) | – |
| 83 to 93 °C | Cc1cccc(C(=O)c2ccc(OC(CCN(C)CC(=O)O)c3ccc(F)cc3)cc2)c1C (stereo not shown) (as salt: salt) | – |
| 65 to 75 °C | CN(CCC(Oc1ccc(C(=O)c2ccccc2F)cc1)c1ccc(F)cc1)CC(=O)O (stereo not shown) (as salt: salt) | – |
| 65 to 75 °C | CN(CCC(Oc1ccc(C(=O)c2ccc(F)cc2F)cc1)c1ccc(F)cc1)CC(=O)O (stereo not shown) (as salt: salt) | – |
| 75 to 85 °C | Cc1cccc(C(=O)c2ccc(OC(CCN(C)CC(=O)O)c3ccc(F)cc3)cc2)c1 (stereo not shown) (as salt: salt) | – |
| 65 to 75 °C | CN(CCC(Oc1ccc(C(=O)c2ccsc2)cc1)c1ccc(F)cc1)CC(=O)O (stereo not shown) (as salt: salt) | – |
| 90 to 100 °C | CN(CCC(Oc1ccc(C(=O)c2cc3ccccc3s2)cc1)c1ccc(F)cc1)CC(=O)O (stereo not shown) (as salt: salt) | – |

| melting point | Compound | post synaptic current driven by the NMDA receptor [1] |
| --- | --- | --- |
| 68 to 80 °C | CN(CCC(Oc1ccc(C(=O)c2ccccn2)cc1)c1ccc(F)cc1)CC(=O)O (stereo not shown) (as salt: salt) | – |
| 98 to 108 °C | CN(CCC(Oc1ccc(C(=O)c2nccs2)cc1)c1ccc(F)cc1)CC(=O)O (stereo not shown) (as salt: salt) | – |
| 95 to 110 °C | Cc1cnc(C(=O)c2ccc(OC(CCN(C)CC(=O)O)c3ccc(F)cc3)cc2)s1 (stereo not shown) (as salt: salt) | – |
| 105 to 111 °C | CN(CCC(Oc1ccc(C(=O)c2nc3ccccc3s2)cc1)c1ccc(F)cc1)CC(=O)O (stereo not shown) (as salt: salt) | – |
| 65 to 71 °C | Cc1ccc(C(=O)c2ccc(OC(CCN(C)CC(=O)O)c3ccc(Cl)cc3)cc2)cc1 (stereo not shown) (as salt: salt) | – |
| 60 to 70 °C | COc1ccc(C(=O)c2ccc(OC(CCN(C)CC(=O)O)c3ccc(Cl)cc3)cc2)cc1 (stereo not shown) (as salt: salt) | – |
| 63 to 68 °C | CN(CCC(Oc1ccc(C(=O)c2ccc(Cl)cc2)cc1)c1ccc(Cl)cc1)CC(=O)O (stereo not shown) (as salt: salt) | – |
| 63 to 70 °C | CN(CCC(Oc1ccc(C(=O)c2ccc(C(F)(F)F)cc2)cc1)c1ccc(Cl)cc1)CC(=O)O (stereo not shown) (as salt: salt) | – |
| 65 to 73 °C | Cc1cccnc1C(=O)c1ccc(OC(CCN(C)CC(=O)O)c2ccc(F)cc2)cc1 (stereo not shown) (as salt: salt) | – |
| 75 to 85 °C | CN(CCC(Oc1ccc(C(=O)c2ccccc2F)cc1)c1ccc(Cl)cc1)CC(=O)O (stereo not shown) (as salt: salt) | – |
| 75 to 85 °C | CN(CCC(Oc1ccc(C(=O)c2ccc(F)cc2F)cc1)c1ccc(Cl)cc1)CC(=O)O (stereo not shown) (as salt: salt) | – |
| 85 to 93 °C | Cc1cccc(C(=O)c2ccc(OC(CCN(C)CC(=O)O)c3ccc(Cl)cc3)cc2)c1C (stereo not shown) (as salt: salt) | – |
| 91 to 110 °C | CN(CCC(Oc1ccc(C(=O)c2ccsc2)cc1)c1ccc(Cl)cc1)CC(=O)O (stereo not shown) (as salt: salt) | – |
| 101 to 112 °C | CN(CCC(Oc1ccc(C(=O)c2cc3ccccc3s2)cc1)c1ccc(Cl)cc1)CC(=O)O (stereo not shown) (as salt: salt) | – |
| 52 to 65 °C | CN(CCC(Oc1ccc(C(=O)c2ccncc2)cc1)c1ccc(F)cc1)CC(=O)O (stereo not shown) (as salt: salt) | – |
| 182 to 192 °C | Cc1cnc(C(=O)c2ccc(OC(CCN(C)CC(=O)O)c3ccc(Cl)cc3)cc2)s1 (stereo not shown) (as salt: salt) | – |
| 70 to 80 °C | CC(C)c1ccc(C(=O)c2ccc(OC(CCN(C)CC(=O)O)c3ccc(F)cc3)cc2)cc1 (stereo not shown) (as salt: salt) | – |
| 77 to 87 °C | CN(CCC(Oc1ccc(C(=O)c2c(F)cccc2F)cc1)c1ccc(F)cc1)CC(=O)O (stereo not shown) (as salt: salt) | – |
| 80 to 95 °C | CN(CCC(Oc1ccc(C(=O)c2ccccc2)cc1)c1ccc(F)cc1)CC(=O)O (stereo not shown) (as salt: salt) | – |
| 95 to 100 °C | CN(CCC(Oc1ccc(S(=O)(=O)c2ccccc2)cc1)c1ccccc1)CC(=O)O (stereo not shown) (as salt: salt) | – |
| – | CN(CCC(Oc1ccc(-c2ccccc2)cc1)c1ccc(F)cc1)CC(=O)O (stereo not shown) [NFPS] | increased the post synaptic current driven by the NMDA receptor |
